One may read the IC50 as the point on the concentration scale where inhibition reaches its midpoint. A higher IC50 goes with weaker potency in that assay.

Results on 1 compound are retold here after article PMC7695371, “Mimetics of extra virgin olive oil phenols with anti-cancer stem cell activity” (Aging (Albany NY), 2020).

Assay [1] addresses T1, DNMT3A (Homo sapiens, UniProt Q9Y6K1).
T1 construct: recombinant, Reaction Biology Corp. HotSpot assay
In words: HotSpot radioisotope filter-binding methyltransferase assay, 10-dose. The assay is classed as biochemical.

Assay [2] has as its target FRAP1 (mTOR) (Homo sapiens, UniProt P42345). In words: FRET-based Z-LYTE kinase assay, […] concentrations. In kind it is biochemical.

T1 sequence (Q9Y6K1 whole entry, looked up): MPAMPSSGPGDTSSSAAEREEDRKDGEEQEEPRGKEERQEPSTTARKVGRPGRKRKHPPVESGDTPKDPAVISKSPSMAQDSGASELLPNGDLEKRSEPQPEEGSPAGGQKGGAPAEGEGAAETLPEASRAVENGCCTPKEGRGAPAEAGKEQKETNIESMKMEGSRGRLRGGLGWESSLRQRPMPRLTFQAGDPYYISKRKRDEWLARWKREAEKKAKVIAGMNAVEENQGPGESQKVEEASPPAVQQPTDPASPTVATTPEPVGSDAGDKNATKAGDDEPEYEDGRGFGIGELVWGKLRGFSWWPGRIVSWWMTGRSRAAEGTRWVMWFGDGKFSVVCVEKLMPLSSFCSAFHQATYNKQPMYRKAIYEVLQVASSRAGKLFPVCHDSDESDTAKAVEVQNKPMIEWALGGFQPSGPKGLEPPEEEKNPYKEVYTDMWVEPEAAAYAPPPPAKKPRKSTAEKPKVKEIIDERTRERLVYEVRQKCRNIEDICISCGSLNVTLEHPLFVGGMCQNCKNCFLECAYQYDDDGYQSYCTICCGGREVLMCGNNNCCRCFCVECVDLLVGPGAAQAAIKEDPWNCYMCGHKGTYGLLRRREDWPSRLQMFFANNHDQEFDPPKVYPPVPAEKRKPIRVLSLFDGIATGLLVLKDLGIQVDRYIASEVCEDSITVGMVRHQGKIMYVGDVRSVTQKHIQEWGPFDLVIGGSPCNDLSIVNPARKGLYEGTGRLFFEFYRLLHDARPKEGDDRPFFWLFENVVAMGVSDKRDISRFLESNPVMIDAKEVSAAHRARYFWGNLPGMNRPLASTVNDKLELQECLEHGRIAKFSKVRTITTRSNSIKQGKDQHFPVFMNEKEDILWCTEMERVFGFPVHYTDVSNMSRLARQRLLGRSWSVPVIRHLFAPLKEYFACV

For `CCCC(=O)OCCc1ccc(O)c(O)c1` [CHEMBL1950046, 3,4-Dihydroxyphenethyl butyrate], the IC50 in assay [1] is over 150 µM; in assay [2] it was about 39 µM.
